Measured values as given in publication PMC7181660, “A novel specific PERK activator reduces toxicity and extends survival in Huntington's disease models” (Scientific Reports, 2020).
Read-outs that look alike come from different tables or passages of the source.

Columns and labels:
Assay in all cases: biochemical
Format in all cases: biochemical
panel of 391 kinases [1] = target: panel of 391 kinases (Homo sapiens, UniProt P49759); settings: CLK1, MK-28 1 µM, ATP 1 µM
panel of 391 kinases [2] = target: panel of 391 kinases (Homo sapiens, UniProt Q8IW41); settings: MAPKAPK5/PRAK, MK-28 1 µM, ATP 1 µM
panel of 391 kinases [3] = target: panel of 391 kinases (Homo sapiens, UniProt Q13557); settings: CAMK2d, MK-28 1 µM, ATP 1 µM
panel of 391 kinases [4] = target: panel of 391 kinases (Homo sapiens, UniProt Q13873); settings: BMPR2, MK-28 1 µM, ATP 1 µM
panel of 391 kinases [5] = target: panel of 391 kinases (Homo sapiens, UniProt P43403); settings: ZAP70, MK-28 1 µM, ATP 1 µM
panel of 391 kinases [6] = target: panel of 391 kinases (Homo sapiens, UniProt P15056); settings: BRAF, MK-28 1 µM, ATP 1 µM
panel of 391 kinases [7] = target: panel of 391 kinases (Homo sapiens, UniProt Q14680); settings: MELK, MK-28 1 µM, ATP 1 µM
panel of 391 kinases [8] = target: panel of 391 kinases (Homo sapiens, UniProt Q00537); settings: CDK17/cyclin Y (PCTK2), MK-28 1 µM, ATP 1 µM
panel of 391 kinases [9] = target: panel of 391 kinases (Homo sapiens, UniProt P54646); settings: compound at 1 µM, single dose in duplicates, 1 µM ATP; for remaining activity at 1 µM: read-out: % Enzyme Activity (relative to DMSO controls)
panel of 391 kinases [10] = target: panel of 391 kinases (Homo sapiens, UniProt Q9Y6M4); settings: CK1g3, MK-28 1 µM, ATP 1 µM
panel of 391 kinases [11] = target: panel of 391 kinases (Homo sapiens, UniProt Q9UPZ9); settings: LCK2/ICK, MK-28 1 µM, ATP 1 µM
panel of 391 kinases [12] = target: panel of 391 kinases (Homo sapiens, UniProt Q9UHD2); settings: TBK1, MK-28 1 µM, ATP 1 µM
panel of 391 kinases [13] = target: panel of 391 kinases (Homo sapiens, UniProt Q08881); settings: ITK, MK-28 1 µM, ATP 1 µM
panel of 391 kinases [14] = target: panel of 391 kinases (Homo sapiens, UniProt Q96KB5); settings: PBK/TOPK, MK-28 1 µM, ATP 1 µM
panel of 391 kinases [15] = target: panel of 391 kinases (Homo sapiens, UniProt Q13976); settings: PKG1a, MK-28 1 µM, ATP 1 µM
panel of 391 kinases [16] = target: panel of 391 kinases (Homo sapiens, UniProt Q16584); settings: MLK3/MAP3K11, MK-28 1 µM, ATP 1 µM
panel of 391 kinases [17] = target: panel of 391 kinases (Homo sapiens, UniProt P42345); settings: kinase mTOR/FRAP1, compound at 1 µM, single dose in duplicates, 1 µM ATP
panel of 391 kinases [18] = target: panel of 391 kinases (Homo sapiens, UniProt Q9P286); settings: PAK5, MK-28 1 µM, ATP 1 µM
panel of 391 kinases [19] = target: panel of 391 kinases (Homo sapiens, UniProt Q9Y2U5); settings: MEKK2, MK-28 1 µM, ATP 1 µM
panel of 391 kinases [20] = target: panel of 391 kinases (Homo sapiens, UniProt P10721); settings: c-Kit, MK-28 1 µM, ATP 1 µM
panel of 391 kinases [21] = target: panel of 391 kinases (Homo sapiens, UniProt P00519); settings: ABL1, MK-28 1 µM, ATP 1 µM
panel of 391 kinases [22] = target: panel of 391 kinases (Homo sapiens, UniProt P11362); settings: FGFR1, MK-28 1 µM, ATP 1 µM
panel of 391 kinases [23] = target: panel of 391 kinases (Homo sapiens, UniProt Q16512); settings: PKN1/PRK1, MK-28 1 µM, ATP 1 µM
panel of 391 kinases [24] = target: panel of 391 kinases (Homo sapiens, UniProt Q9BZL6); settings: PKD2/PRKD2, MK-28 1 µM, ATP 1 µM
panel of 391 kinases [25] = target: panel of 391 kinases (Homo sapiens, UniProt P36894); settings: ALK3/BMPR1A, MK-28 1 µM, ATP 1 µM
[26] = read-out: % Enzyme Activity (relative to DMSO controls)

CN(/N=C\c1ccc(O)c(O)c1)c1nc(-c2ccccc2)cc(-c2ccccc2)n1 [MK-28]
% Enzyme Activity (relative to DMSO controls) (panel of 391 kinases [1]): 108.65%
remaining activity at 1 µM (panel of 391 kinases [1]; [26]): 109%
% Enzyme Activity (relative to DMSO controls) (panel of 391 kinases [2]): 77.52%
remaining activity at 1 µM (panel of 391 kinases [2]; [26]): 77.8%
% Enzyme Activity (relative to DMSO controls) (panel of 391 kinases [3]): 94.06%
remaining activity at 1 µM (panel of 391 kinases [3]; [26]): 94.2%
% Enzyme Activity (relative to DMSO controls) (panel of 391 kinases [4]): 101.00%
remaining activity at 1 µM (panel of 391 kinases [4]; [26]): 105%
% Enzyme Activity (relative to DMSO controls) (panel of 391 kinases [5]): 95.37%
remaining activity at 1 µM (panel of 391 kinases [5]; [26]): 97.8%
% Enzyme Activity (relative to DMSO controls) (panel of 391 kinases [6]): 99.64%
remaining activity at 1 µM (panel of 391 kinases [6]; [26]): 101%
% Enzyme Activity (relative to DMSO controls) (panel of 391 kinases [7]): 84.50%
remaining activity at 1 µM (panel of 391 kinases [7]; [26]): 85.5%
% Enzyme Activity (relative to DMSO controls) (panel of 391 kinases [8]): 104.03%
remaining activity at 1 µM (panel of 391 kinases [8]; [26]): 109%
% Enzyme Activity (relative to DMSO controls) (panel of 391 kinases [9]; kinase AMPK(A2/B1/G1)): 91.41%
remaining activity at 1 µM (panel of 391 kinases [9]; kinase AMPK(A2/B1/G1)): 93%
% Enzyme Activity (relative to DMSO controls) (panel of 391 kinases [9]; kinase AMPK(A2/B2/G1)): 106.33%
remaining activity at 1 µM (panel of 391 kinases [9]; kinase AMPK(A2/B2/G1)): 108%
% Enzyme Activity (relative to DMSO controls) (panel of 391 kinases [9]; kinase AMPK(A2/B2/G2)): 103.36%
remaining activity at 1 µM (panel of 391 kinases [9]; kinase AMPK(A2/B2/G2)): 104%
% Enzyme Activity (relative to DMSO controls) (panel of 391 kinases [9]; kinase AMPK(A2/B2/G3)): 96.60%
remaining activity at 1 µM (panel of 391 kinases [9]; kinase AMPK(A2/B2/G3)): 98.9%
% Enzyme Activity (relative to DMSO controls) (panel of 391 kinases [10]): 76.84%
remaining activity at 1 µM (panel of 391 kinases [10]; [26]): 80.6%
% Enzyme Activity (relative to DMSO controls) (panel of 391 kinases [11]): 99.01%
remaining activity at 1 µM (panel of 391 kinases [11]; [26]): 99.2%
% Enzyme Activity (relative to DMSO controls) (panel of 391 kinases [12]): 116.87%
remaining activity at 1 µM (panel of 391 kinases [12]; [26]): 126%
% Enzyme Activity (relative to DMSO controls) (panel of 391 kinases [13]): 92.03%
remaining activity at 1 µM (panel of 391 kinases [13]; [26]): 92.4%
% Enzyme Activity (relative to DMSO controls) (panel of 391 kinases [14]): 93.64%
remaining activity at 1 µM (panel of 391 kinases [14]; [26]): 94.2%
% Enzyme Activity (relative to DMSO controls) (panel of 391 kinases [15]): 86.31%
remaining activity at 1 µM (panel of 391 kinases [15]; [26]): 89%
% Enzyme Activity (relative to DMSO controls) (panel of 391 kinases [16]): 162.84%
remaining activity at 1 µM (panel of 391 kinases [16]; [26]): 168%
% Enzyme Activity (relative to DMSO controls) (panel of 391 kinases [17]): 93.79%
remaining activity at 1 µM (panel of 391 kinases [17]; [26]): 94.4%
% Enzyme Activity (relative to DMSO controls) (panel of 391 kinases [18]): 72.57%
remaining activity at 1 µM (panel of 391 kinases [18]; [26]): 77.2%
% Enzyme Activity (relative to DMSO controls) (panel of 391 kinases [19]): 91.93%
remaining activity at 1 µM (panel of 391 kinases [19]; [26]): 94%
% Enzyme Activity (relative to DMSO controls) (panel of 391 kinases [20]): 93.67%
remaining activity at 1 µM (panel of 391 kinases [20]; [26]): 93.8%
% Enzyme Activity (relative to DMSO controls) (panel of 391 kinases [21]): 94.94%
remaining activity at 1 µM (panel of 391 kinases [21]; [26]): 98.9%
% Enzyme Activity (relative to DMSO controls) (panel of 391 kinases [22]): 103.69%
remaining activity at 1 µM (panel of 391 kinases [22]; [26]): 105%
% Enzyme Activity (relative to DMSO controls) (panel of 391 kinases [23]): 112.74%
remaining activity at 1 µM (panel of 391 kinases [23]; [26]): 113%
% Enzyme Activity (relative to DMSO controls) (panel of 391 kinases [24]): 86.38%
remaining activity at 1 µM (panel of 391 kinases [24]; [26]): 87%
% Enzyme Activity (relative to DMSO controls) (panel of 391 kinases [25]): 98.85%
remaining activity at 1 µM (panel of 391 kinases [25]; [26]): 106%
